The values below come from PMC10700673, “A Smart Intracellular Self‐Assembling Bioorthogonal Raman Active Nanoprobe for Targeted Tumor Imaging” (Advanced Science, 2023).

The subject of data set [1] is DU145, LNCaP, and RWPE1 cells. Briefly: cell viability, Trypan blue cell counting. It counts as cell-based. The following applies: 48 h of incubation, % of untreated control, three independent experiments. The source says:
To confirm that the nanoSABER nanoprobe can effectively differentiate between cells with high and low levels of legumain expression, we examined nanoSABER assembly in DU145, LNCaP, and RWPE1 cells. DU145 and LNCaP are legumain overexpressing and low‐expressing prostate cancer cell lines, respectively, whereas RWPE1 is a normal prostate epithelium cell line. Legumain‐overexpressing tumorigenic cells are aggressive in terms of migration and invasion.^[ [33] ^] Therefore, designing new probes for targeted imaging of legumain expression is of great significance for tumor diagnosis and tumor staging. […] A combination of both high endogenous GSH and high legumain levels is necessary in order for DU145 cells to uncage the thiol and amino groups in the nanoSABER, triggering intramolecular cyclization to form alkyne‐dimers.
For cell viability testing, the total numbers of DU145, LNCaP, and RWPE1 cells were counted after staining with Trypan blue using an Invitrogen Countess 3 automated cell counter. Cells were incubated with nanoSABER at different concentrations. Cell viability was calculated as a percentage of control (untreated cells) set at 100%. Data were expressed as mean ± standard deviation. from three independent experiments.

A further data set relates to DU145 tumor. Briefly: in vivo Raman imaging of tumor-bearing mice. More on the design: species or system NU/J nude mice. The note with it: 2 h after IV injection of 0.0125 mmol kg-1. As for the experimental part: To further evaluate the ability of the nanoSABER probe to delineate legumain‐overexpressing tumors, in vivo Raman imaging of tumors of mice inoculated with DU145 and LNCaP cells was performed (Figure 6a). The Raman images were captured 2 h after the intravenous (IV) injection of the nanoSABER probe. […] Our results validated that nanoSABER experienced tumor legumain‐triggered self‐assembly into alkyne‐dimer nanoparticles that effectively generated distinct and higher Raman signals in DU145 tumors. To validate our findings, we included a control group that received a PBS injection instead of the nanoSABER probes. In both types of tumors, no Raman signal was detected in the control group (Figure S15, Supporting Information), further confirming that the observed signals in the experimental groups were indeed attributable to the legumain‐instructed self‐assembly of alkyne‐dimer nanoparticles.
All animal experiments were approved by an institutional animal care and use committee (IACUC) protocol. NU/J nude mice (male, 6–8 weeks old) were subcutaneously injected with 1 × 10^6 DU145 or LNCaP cells in the right flank. Once the tumor reached a volume of 100–200 mm^3, mice were IV injected with 0.0125 mmol kg^–1 nanoSABER or PBS (control group). After 2 h, Raman imaging was performed to determine the amount of intracellular self‐assembly within the tumors.

As to “Ac‐Arg‐Arg‐Arg‐Arg‐Arg‐Arg‐Ala‐Ala‐Asn‐Cys(StBu)‐Pra‐Lys‐CBT [nanoSABER]”, in data set [1], the “toxic concentration (no toxicity up to)” value is reported as more than 250 µM. Further, the “Raman signal of the alkyne peak at 2120 cm-1 in the tumor” value in the data set with DU145 tumor is “Intense Raman signal”.
